Results on three compounds are retold here after the NIST ThermoML archive (doi:10.1016/j.tca.2006.11.008).

This data set can be described thus: molar enthalpy of vaporization or sublimation. To be noted: Crystal, Static calorimetry.

Numbers after ± are expanded uncertainties.

Regarding `NC(=O)N1CCCCC1` [1-piperidinecarboxamide], the molar enthalpy (386 K) is 23.9 ± 0.311 kcal/mol.

In the case of `NC(=O)C1CCCNC1` (stereo not drawn) [3-piperidinecarboxamide], the molar enthalpy (386 K) amounted to 26.9 ± 0.311 kcal/mol. For the compound `NC(=O)C1CCNCC1` [4-piperidinecarboxamide], the molar enthalpy (426.8 K) was found to be 29.5 ± 0.311 kcal/mol.
